Experimental data: PMC11578313, “Miniaturized Modular Click Chemistry‐enabled Rapid Discovery of Unique SARS‐CoV‐2 M^pro Inhibitors With Robust Potency and Drug‐like Profile” (Advanced Science, 2024)
“And” between values parts separate entries of the source, which are not always exact repeats. Equal values may be shown once. Read-outs that look alike come from different tables or passages of the source.

Assays:
in vitro = settings: human
Kunming mice [1] = test: Subacute toxicity experiment; type: in vivo
Method: (§1) The acute and subacute toxicity of C5N17B were assessed in Kunming mice. In the acute toxicity study, one group received an oral dose of 500 mg kg^−1 of C5N17B. In the subacute toxicity study, a different group was administered a lower dose of 50 mg kg^−1 of C5N17B. Each experimental set included a control group that received only the vehicle treatment.
(§2) Kunming mice were group housed both during acclimation and the study period. The animal room environment was controlled to maintain specific target conditions, including a temperature range of 20 °C to 25 °C, relative humidity levels between 40% and 70%, and an alternating schedule of artificial light for 12 h followed by 12 h of darkness. The age of Kunming mice in the acute/subacute toxicity study was 3–4 weeks, and the body weights were ≈20 g. All animal experiments related to this study were approved by the ethics committee of Cheeloo College of Medicine (approval No. 230014), Shandong University (Jinan, China) Procedures performed in the studies were guided by the ethical standards of the institution.
A group of Kunming mice (comprising three males and three females) was supplied by the Animal Experimental Center of Shandong University. The mice underwent a 12 h fasting period, followed by oral administration of a suspension containing C5N17B in 0.5% CMC‐Na and 3% DMSO at the concentration of 100 mg mL^−1 to achieve an acute toxicity dose of 500 mg kg^−1. In the subacute toxicity experiment, the test group received 50 mg kg^−1 of C5N17B orally, with another group serving as a control. The experimental group and control group each consist of six mice, with an equal distribution of three males and three females.

Kunming mice [2] = test: Acute toxicity experiment; type: in vivo
Method: as §1, §2
A group of Kunming mice (comprising three males and three females) was supplied by the Animal Experimental Center of Shandong University. […]

SARS‐CoV‐2 viral RNA = type: cell-based
SARS‐CoV‐2 M^pro [3] = target: T1, SARS‐CoV‐2 M^pro (Severe acute respiratory syndrome coronavirus 2, UniProt P0DTD1); test: SARS‐CoV‐2 main protease enzymatic assay (FRET inhibitor screening kit); type: biochemical
HCoV‐229E = test: microbe, parasite or virus in culture; type: cell-based
[4] = for Plasma concentration (Calculated Concentration): mouse plasma
SARS‐CoV‐2 M^pro [5] = target: T1, SARS‐CoV‐2 M^pro; test: biochemical; settings: reported K M value and Cheng‐Prusoff equation
HCoV‐OC43 = test: microbe, parasite or virus in culture; type: cell-based; settings: Betacoronavirus 1, MRC5, read-out: EC50 ± SD, HCoV‐OC43
[6] = test system: SARS‐CoV‐2 (hCoV‐19/Korea/KCDC06/2020, wild type); test: microbe, parasite or virus in culture; type: cell-based
[7] = test system: SARS‐CoV‐2 Gamma (hCoV‐19/Korea/KDCA95637/2021); test: microbe, parasite or virus in culture; type: cell-based; settings: Severe acute respiratory syndrome coronavirus 2; Calu‐3; read-out: EC50 ± SD, SARS‐CoV‐2 Gamma
MERS‐CoV = test: microbe, parasite or virus in culture; type: cell-based
HCoV‐NL63 = test: microbe, parasite or virus in culture; type: cell-based; settings: Human coronavirus NL63, LLC-MK2, read-out: EC50 ± SD, HCoV‐NL63
[8] = C5N17B+Ritonavir, PO 10 mg/kg, individual mice 1#-3#, 10 mg/kg
[9] = C5N17B+Ritonavir, po 10 mg/kg, based on predicted Clast, individual mice, 10 mg/kg
[10] = C5N17B+Ritonavir, po 10 mg/kg, dose-normalised, individual mice, 10 mg/kg
[11] = C5N17B+Ritonavir, po 10 mg/kg, non-compartmental output, individual mice, 10 mg/kg

With `Cc1cncc(C(=O)N2C[C@H]3CC[C@@H](C2)N3[C@H](c2cccc(F)c2)c2cn(CCc3ccsc3)nn2)c1` [Compound C5N17B] the CC50 (in vitro) was > 100000 nM, the CC50 at 2 day (in vitro; CC50 (Table 3), Calu‐3 cells) was > 100000 nM and the CC50 at 2 day (in vitro; CC50, Calu‐3 cells, MTT assay) was > 100000 nM. The CC50 at 2 day (in vitro; CC50, column 9, after the Calu-3 EC50 columns) was > 100000 nM, the “body weight compared to the control group, subacute toxicity” value (Kunming mice [1]; 50 mg kg^−1, 15 days) was “no significant changes in body weight” and the “examination of vital organs, hematoxylin and eosin‐stained slices” value (Kunming mice [1]; heart, liver, spleen, lung, kidney, subacute toxicity study) was “no significant pathological abnormalities”. For the same compound, the “fatalities or abnormal behavior, subacute toxicity” value (Kunming mice [1]; oral 50 mg kg^−1, Kunming mice) was “No fatalities or abnormal behavior”, the “body weight compared to the control group, acute toxicity” value (Kunming mice [2]; 500 mg kg^−1, 7 days) was “no significant changes in body weight” and the “fatalities or abnormal behavior, acute toxicity” value (Kunming mice [2]; oral dose of 500 mg kg^−1, Kunming mice) was “No fatalities or abnormal behavior”. The “reduction in viral RNA” value (SARS‐CoV‐2 viral RNA) was “exceeded 3 log orders”, the “decrease in viral RNA copy number compared to 10.0 µM nirmatrelvir” value (SARS‐CoV‐2 viral RNA; 0.041 µM) was 20 fold and the IC50 (SARS‐CoV‐2 M^pro [3]) was 120 nM. For the same compound, the inhibition at 5 µM (SARS‐CoV‐2 M^pro [3]; 5 μM, read-out: Inhibitionrate at @5μM) was 99.6%, the “fold stronger enzyme inhibitory activity than C5N17A” value (SARS‐CoV‐2 M^pro [3]; IC50 ratio) was 27 fold and the EC50 (HCoV‐229E; Human coronavirus 229E, MRC5, read-out: EC50 ± SD, HCoV‐229E) was > 100000 nM. The “EC50 ± SD, HCoV‐229E” value (HCoV‐229E; MRC‐5) was “failed to inhibit”, the “AUC0-∞” value [4, 8] was 13462 ng·h/mL and 18653 ng·h/mL and the AUC(0-t) [4, 8] was 13105 ng·h/mL and 11834 ng·h/mL. For the same compound, the Cmax [4, 8] was 2150 ng/mL and 2470 ng/mL, the MRT0-t [4, 8] was 3.43 h and 3.39 h and the “MRT0-∞” value [4, 8] was 3.03 h and 3.63 h and 7.98 h. For the same compound, the T1/2 [4, 8] was 1.87 h and 2.03 h and 5.52 h, the “Plasma concentration (Calculated Concentration)” value ([4]; C5N17B+Ritonavir, PO 10 mg/kg, 5 min (5min), individual mice, 10 mg/kg) was 861 ng/mL and 439 ng/mL and the “Plasma concentration (Calculated Concentration)” value ([4]; C5N17B+Ritonavir, PO 10 mg/kg, 0.5 h (30min), individual mice, 10 mg/kg) was 1220 ng/mL and 1720 ng/mL. The “Plasma concentration (Calculated Concentration)” value ([4]; C5N17B+Ritonavir, PO 10 mg/kg, 1 h, individual mice, 10 mg/kg) was 1750 ng/mL and 1960 ng/mL, the “Plasma concentration (Calculated Concentration)” value ([4]; C5N17B+Ritonavir, PO 10 mg/kg, 2 h, individual mice, 10 mg/kg) was 2270 ng/mL and 2140 ng/mL and the “Plasma concentration (Calculated Concentration)” value ([4]; C5N17B+Ritonavir, PO 10 mg/kg, 4 h, individual mice, 10 mg/kg) was 1920 ng/mL and 2150 ng/mL. The AUCINF_pred [4, 9] was 13994.4 ng·h/mL and 18824.1 ng·h/mL, the Cl_F_pred [4, 9] was 15.3694 mL/min/kg and 11.9096 mL/min/kg and 8.85392 mL/min/kg and the MRTINF_pred [4, 9] was 3.269 h and 3.905 h and 8.0548 h. The Vz_F_pred [4, 9] was 2.48776 L/kg and 2.09319 L/kg and 4.22695 L/kg, the AUCINF_D_pred ([4]; C5N17B+Ritonavir, po 10 mg/kg, dose-normalised, based on predicted Clast, individual mice, 10 mg/kg) was 1084.41 kg·ng·h/mL/mg and 1399.44 kg·ng·h/mL/mg and 1882.41 kg·ng·h/mL/mg and the AUCINF_D_obs [4, 10] was 1039.52 kg·ng·h/mL/mg and 1346.22 kg·ng·h/mL/mg and 1865.31 kg·ng·h/mL/mg. The AUClast_D [4, 10] was 968.565 kg·ng·h/mL/mg and 1310.48 kg·ng·h/mL/mg and 1183.41 kg·ng·h/mL/mg, the Cmax_D [4, 10] was 227 kg·ng/mL/mg and 215 kg·ng/mL/mg and 247 kg·ng/mL/mg and the Tlag ([4]; C5N17B+Ritonavir, po 10 mg/kg, non-compartmental output, individual mice) was 0 h. For the same compound, the AUCINF_obs [4, 11] was 13462.2 ng·h/mL and 18653.1 ng·h/mL, the AUCall [4, 11] was 13104.8 ng·h/mL and 11834.1 ng·h/mL and the AUClast [4, 11] was 13104.8 ng·h/mL and 11834.1 ng·h/mL. For the same compound, the AUMClast [4, 11] was 25373.2 h*h*ng/ml and 44928.8 h*h*ng/ml and 40086.7 h*h*ng/ml, the Cl_F_obs [4, 11] was 12.3804 mL/min/kg and 8.93505 mL/min/kg and the Cmax [4, 11] was 2150 ng/mL and 2470 ng/mL. For the same compound, the HL_Lambda_z [4, 11] was 1.87 h and 2.03 h and 5.515 h, the Lambda_z [4, 11] was 0.3707 h⁻¹ and 0.3414 h⁻¹ and 0.1257 h⁻¹ and the MRTINF_obs [4, 11] was 3.035 h and 3.628 h and 7.982 h. For the same compound, the MRTlast [4, 11] was 3.428 h and 3.387 h, the Tlast [4, 11] was 6 h and 8 h and the Vz_F_obs [4, 11] was 2.5952 L/kg and 2.17594 L/kg and 4.26569 L/kg. For the same compound, the Clast_pred ([4]; C5N17B+Ritonavir, po 10 mg/kg, predicted from terminal fit, individual mice, 10 mg/kg) was 429.412 ng/mL and 303.677 ng/mL and 878.481 ng/mL, the “plasma exposure (AUC0‐t) with ritonavir higher than when administered alone” value ([4]; p.o. 10 mg kg^−1) was ~300 fold and the Ki (SARS‐CoV‐2 M^pro [5]) was 26.6 nM. The EC50 (HCoV‐OC43) was 2710 ± 510 nM, the EC50 ([6]; Severe acute respiratory syndrome coronavirus 2, Calu-3, Calu‐3, read-out: EC50 ± SD, SARS‐CoV‐2 Wild‐type) was 119 ± 11 nM and the EC50 ([6]; Severe acute respiratory syndrome coronavirus 2, Calu-3, Calu‐3 cells, racemate, enantiomers and […] measured in the same system, read-out: EC50, anti‐SARS‐CoV‐2 activity in Calu‐3 cells (Figure 3B)) was 78 nM. For the same compound, the EC50 [7] was 260 ± 13 nM, the “EC50 ± SD, MERS‐CoV” value (MERS‐CoV) was “failed to inhibit” and the EC50 (MERS‐CoV; Middle East respiratory syndrome-related coronavirus, Huh-7, read-out: EC50 ± SD, MERS‐CoV) was > 100000 nM. For the same compound, the EC50 (HCoV‐NL63) was > 100000 nM.
